Measurements from ChEMBL document CHEMBL5543130, “Design, Synthesis, and In Vivo Evaluation of Isosteviol Derivatives as New SIRT3 Activators with Highly Potent Cardioprotective Effects” (J Med Chem, 2024).
Calls of active or inactive are those of the source. The calls are words filed in the database; no cut-off is given here.

How the values were obtained:
[1] = test system: Danio rerio; test: Cardioprotective activity against doxorubicin-induced Zebrafish cardiomyopathy model at 5 to 15 uM fertilized for 24 hrs followed by compound administration for 72 hrs and measured at 96 hrs post fertilization by inverted fluorescence microscopic analysis; format: functional, organism-based; conditions: dose 5-15 µM
[2] = test system: Danio rerio; test: Cardioprotective activity against doxorubicin-induced Zebrafish cardiomyopathy model assessed as survival rate at 5 to 15 uM fertilized for 24 hrs followed by compound administration for 72 hrs and measured at 96 hrs post fertilization by inverted fluorescence microscopic analysis; format: functional; conditions: dose 5-15 µM
[3] = species: Danio rerio; test: Cardioprotective activity against doxorubicin-induced Tg(cmlc2: GFP) Zebrafish assessed as reduction in Bnp mRNA level measured at 72 hrs post fertilization by qPCR analysis; format: functional, organism-based
[4] = species: Danio rerio; test: Cardioprotective activity against doxorubicin-induced Tg(cmlc2: GFP) Zebrafish assessed as reduction in cTnT mRNA level measured at 72 hrs post fertilization by qPCR analysis; format: functional, organism-based; conditions: dose <= 5.0 µM
[5] = Toxicity in zebrafish embryos assessed as survival at upto 40 uM fertilized for 24 hrs followed by compound administration for 72 hrs and measured at 96 hrs post fertilization; parameters: species or system Danio rerio; conditions: in vivo
[6] = test system: Danio rerio; test: Cardioprotective activity against doxorubicin-induced Zebrafish cardiomyopathy model assessed as survival rate at 1 uM fertilized for 24 hrs followed by compound administration for 72 hrs and measured at 96 hrs post fertilization by inverted fluorescence microscopic analysis; format: functional
[7] = test system: Danio rerio; test: Cardioprotective activity against doxorubicin-induced Tg(cmlc2: GFP) Zebrafish assessed as […] at 1 uM measured at 72 hrs post fertilization; format: functional, organism-based
[8] = species: Danio rerio; test: Cardioprotective activity against doxorubicin-induced Tg(cmlc2: GFP) Zebrafish assessed as restoration of normal heart structure at 1 uM measured at 72 hrs post fertilization; format: functional, organism-based
[9] = species: Danio rerio; test: Cardioprotective activity against doxorubicin-induced Tg(cmlc2: GFP) Zebrafish assessed as reduction in Anp mRNA level measured at 72 hrs post fertilization by qPCR analysis; format: functional, organism-based; conditions: dose <= 5.0 µM

CC(CC(=O)O)C(=O)N1CCN(C(=O)[C@]2(C)CCC[C@@]3(C)[C@@H]4CC[C@@]5(C)C[C@]4(CC[C@@H]32)CC5=O)CC1 (some centres undefined)
Activity [1]: Active

COc1cccc(C(=O)N2CCN(C(=O)[C@]3(C)CCC[C@@]4(C)[C@@H]5CC[C@@]6(C)C[C@]5(CC[C@@H]43)CC6=O)CC2)c1OC
Survival [2]: 86%

CC(C)(CC(=O)O)C(=O)N1CCN(C(=O)[C@]2(C)CCC[C@@]3(C)[C@@H]4CC[C@@]5(C)C[C@]4(CC[C@@H]32)CC5=O)CC1
Activity [1]: Active

CC(C)(C)OC(=O)N1CCN(C(=O)[C@]2(C)CCC[C@@]3(C)[C@@H]4CC[C@@]5(C)C[C@]4(CC[C@@H]32)CC5=O)CC1
Activity [1]: Active

C[C@@]12CC[C@@H]3[C@@](CC[C@H]4[C@@]3(C)CCC[C@@]4(C)C(=O)N3CCN(C(=O)COCC(=O)O)CC3)(CC1=O)C2
Activity [1]: Active

C[C@@]12CC[C@@H]3[C@@](CC[C@H]4[C@@]3(C)CCC[C@@]4(C)C(=O)N3CCNCC3)(CC1=O)C2
Activity [1]: Active

Cc1ccc(C(=O)O)c(C(=O)N2CCN(C(=O)[C@]3(C)CCC[C@@]4(C)[C@@H]5CC[C@@]6(C)C[C@]5(CC[C@@H]43)CC6=O)CC2)c1
Activity [3]: Dose-Dependent Effect | Activity [4]: Dose-Dependent Effect | Activity [5]: Non-Toxic | survival at 1 µM [6]: 90% | Activity [7]: Active | Activity [8]: Active | Activity [9]: Dose-Dependent Effect

CC1CCCC(C(=O)O)C1C(=O)N1CCN(C(=O)[C@]2(C)CCC[C@@]3(C)[C@@H]4CC[C@@]5(C)C[C@]4(CC[C@@H]32)CC5=O)CC1 (some centres undefined)
Activity [1]: Active
